From US10251886B1, “4-anilinoquinazoline derivative and albumin conjugates thereof” (National Chiao Tung University, priority 2018, dated 2019)
Like-named read-outs stand apart in the source and are kept apart here.

Legend:
A549 cell = assay: Cell viability assay (MTT assay), A549 cells; type: cell-based
Procedure: (§1) A549 cell (ATCC number: CCL-185) was a non-small cell lung carcinoma cell line, expressing wild type EGFR and K-RAS mutation (G12S). H1975 cell (ATCC number: CRL-5908) was a non-small cell lung carcinoma cell line expressing EGFR L858R/T790M mutation. A549 and H1975 cells were cultured in a complete medium at 37° C., 5% CO2 within a humidified incubator (310/Thermo, Forma Scientific, Inc., Marietta, Ohio). The complete medium was RPMI-1640 medium (Gibco, Life Technologies, Grand Island, N.Y., USA) supplemented with 10% fetal bovine serum (FBS), penicillin (100 units/mL), streptomycin (100 μg/mL), and sodium bicarbonate.
(§2) The cells were plated in 96-well plates at a density of 1×10^4 cells/well for 16-20 hours. Thereafter, the cells in each well were treated by 0.1 mL of a treating agent for 24 hours. The treating agents for the wells were different in treating chemicals and their concentrations. The treating chemicals were Erlotinib, Erlotinib analogues (CE 1 to 6 and E1), and BSA-conjugated Erlotinib Analogue (E2). Next, the cells were washed with phosphate-buffered saline (PBS) and were further cultured with fresh complete medium for 2 days. Subsequently, the cells were incubated with 0.5 mg/ml of 3-(4,5-dimethylthiazol-2-yl)-2,5-diphenyltetrazolium bromide (MTT) in fresh complete medium for 4 hours, followed by removal of the medium and addition of dimethyl sulfoxide (DMSO, 0.1 mL) to thereby allow […]. The absorbance of the reduced MTT (formazan) was read on a microplate reader (VERSAmax, Molecular Devices Inc., CA) at 565 nm. […] Tables 1 and 2, and FIGS. 1 and 2 show cell viability values for A549 cell using different treating chemicals in different concentrations. Table 3 and FIG. 3 show cell viability values for H1975 cell using two treating chemicals in different concentrations.

H1975 cell = assay: Cell viability assay (MTT assay), H1975 cells; type: cell-based; conditions: treated 24 hours, cultured 2 more days, Table 3
Procedure: as §1, §2

[1] = Homo sapiens, A549, 24 h, read-out: Cell viability (%)

Row | Structure (SMILES) | viability at 5 µM (A549 cell; [1]) [%] | viability at 10 µM (A549 cell; [1]) [%] | viability at 20 µM (A549 cell; [1]) [%] | viability at 40 µM (A549 cell; [1]) [%] | viability at 60 µM (A549 cell; [1]) [%] | also measured
1 | C#Cc1cccc(Nc2ncnc3cc(OC)c(OCc4ccccc4)cc23)c1 [CE1, 6-(benzyloxy)-N-(3-ethynylphenyl)-7-methoxyquinazolin-4-amine] | 79.9 | 74.7 | 73 | 71.6 | 63.4 | –
2 | C#Cc1cccc(Nc2ncnc3cc(OCCN)c(OCCOC)cc23)c1 [CE6, 7-(2-aminoethoxy)-N-(3-ethynylphenyl)-6-(2-methoxyethoxy) quinazolin-4-amine] | 75.4 | 74.8 | 74.1 | 62.7 | 58.6 | –
3 | C#Cc1cccc(Nc2ncnc3cc(OCCOC(C)=O)c(OCCOC)cc23)c1 [CE3, 2-{[4-((3-ethynylphenyl)amino)-6-(2-methoxyethoxy)quinazolin-7-yl]oxy}ethyl acetate] | 79.3 | 77.5 | 70.1 | 63 | 59.5 | –
4 | C#Cc1cccc(Nc2ncnc3cc(OCCI)c(OCCOC)cc23)c1 [Example E1, N-(3-ethynylphenyl)-7-(2-iodoethoxy)-6-(2-methoxyethoxy)quinazolin-4-amine] | 32.8 | 30.3 | 26.3 | 28 | 24.3 | Cell viability in comparison with the commercial available drug (Erlotinib) (A549 cell; A549 cells, Tables 1 and 2, FIGS. 1 and 2): significantly lower cell viability
5 | C#Cc1cccc(Nc2ncnc3cc(OCCOC)c(OCCOC)cc23)c1 [Erlotinib, reference compound] | – | – | – | – | – | viability at 0.5 µM (A549 cell; Homo sapiens, A549, 24 h, read-out: Cell viability (%), A549 cell, treating chemical 0.5 μM, treated 24 hours, cultured 2 more days, Table 2): 89.3%; viability at 1 µM (A549 cell; Homo sapiens, A549, 24 h, read-out: Cell viability (%), A549 cell, treating chemical 1 μM, treated 24 hours, cultured 2 more days, Table 2): 89.3%; viability at 5 µM (A549 cell; Homo sapiens, A549, 24 h, read-out: Cell viability (%), A549 cell, treating chemical 5 μM, treated 24 hours, cultured 2 more days, Table 1): 73.8%; viability at 5 µM (A549 cell; Homo sapiens, A549, 24 h, read-out: Cell viability (%), A549 cell, treating chemical 5 μM, treated 24 hours, cultured 2 more days, Table 2): 84.2%; viability at 10 µM (A549 cell; Homo sapiens, A549, 24 h, read-out: Cell viability (%), A549 cell, treating chemical 10 μM, treated 24 hours, cultured 2 more days, Table 1): 71.7%; viability at 20 µM (A549 cell; Homo sapiens, A549, 24 h, read-out: Cell viability (%), A549 cell, treating chemical 20 μM, treated 24 hours, cultured 2 more days, Table 1): 65.9%; viability at 40 µM (A549 cell; Homo sapiens, A549, 24 h, read-out: Cell viability (%), A549 cell, treating chemical 40 μM, treated 24 hours, cultured 2 more days, Table 1): 61.2%; viability at 60 µM (A549 cell; Homo sapiens, A549, 24 h, read-out: Cell viability (%), A549 cell, treating chemical 60 μM, treated 24 hours, cultured 2 more days, Table 1): 58.5%; Cell viability (%) (H1975 cell; treating chemical 0.5 μM): 98.4% ± 2.7; Cell viability (%) (H1975 cell; treating chemical 1 μM): 93.1% ± 2.5; Cell viability (%) (H1975 cell; treating chemical 5 μM): 75.8% ± 4.5
6 | C#Cc1cccc(Nc2ncnc3cc(OCCOS(C)(=O)=O)c(OCCOC)cc23)c1 [CE5, 2-{[4-((3-ethynylphenyl)amino)-6-(2-methoxyethoxy)quinazolin-7-yl]oxy}ethyl methanesulfonate] | 73.7 | 67.2 | 56.1 | 57.9 | 60.7 | –
7 | C#Cc1cccc(Nc2ncnc3cc(OC)c(OCCOC)cc23)c1 [CE2, N-(3-ethynylphenyl)-7-methoxy-6-(2-methoxyethoxy) quinazolin-4-amine] | 69.5 | 60.9 | 62.4 | 64.5 | 61.6 | –
8 | C#Cc1cccc(Nc2ncnc3cc(OCCO)c(OCCOC)cc23)c1 [CE4, 2-{[4-((3-ethynylphenyl)amino)-6-(2-methoxyethoxy)quinazolin-7-yl]oxy}ethanol] | 74.5 | 68.4 | 63.1 | 60.7 | 57.8 | –
